# From ChEMBL document CHEMBL1201862, “PubChem BioAssay data set” (2004)
#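 Growth conditions: 96-well plates. Treatment: test compound, 48 hours, 5 concentrations. Analysis: linear interpolation between bracketing concentrations; unreached endpoints set to highest concentration. GI50 = concentration required for 50% inhibition of growth.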 Activity calls are given as the source filed them. No stated cut-off is given here; in the data, active = GI50 up to about 1.1 µM and inactive = higher.
# Key:
# Assay in all cases: DTP human tumour cell line panel, 48 h
# Malme-3M = tested on: Malme-3M
# LXFL 529 = tested on: LXFL 529
# SNB-78 = tested on: SNB-78
# HOP-62 = tested on: HOP-62
# EKVX = tested on: EKVX
# COLO 205 = tested on: COLO 205
# 786-0 = tested on: 786-0
# SF-539 = tested on: SF-539
# NCI-H23 = tested on: NCI-H23
# RPMI-8226 = tested on: RPMI-8226
# HCC 2998 = tested on: HCC 2998
# OVCAR-5 = tested on: OVCAR-5
# OVCAR-8 = tested on: OVCAR-8
# M14 = tested on: M14
# NCI-H522 = tested on: NCI-H522
# KM-20L2 = tested on: KM-20L2
# CCRF-CEM = tested on: CCRF-CEM
# HL-60 = tested on: HL-60
# SF-268 = tested on: SF-268
# SF-295 = tested on: SF-295
SMILES,GI50 (Malme-3M),GI50 (LXFL 529),GI50 (SNB-78),GI50 (HOP-62),GI50 (EKVX),GI50 (COLO 205),GI50 (786-0),GI50 (SF-539),GI50 (NCI-H23),GI50 (RPMI-8226),GI50 (HCC 2998),GI50 (OVCAR-5),GI50 (OVCAR-8),GI50 (M14),GI50 (NCI-H522),GI50 (KM-20L2),GI50 (CCRF-CEM),GI50 (HL-60),GI50 (SF-268),GI50 (SF-295)
CCCc1cc(OC(=O)c2c(O)cc(OC)cc2CCC)cc(O)c1C(=O)O,17.5 µM (inactive),24.1 µM (inactive),25 µM (inactive),16.6 µM (inactive),26.2 µM (inactive),26.4 µM (inactive),36 µM (inactive),18 µM (inactive),18 µM (inactive),24.2 µM (inactive),25.2 µM (inactive),35 µM (inactive),37.5 µM (inactive),28.4 µM (inactive),16 µM (inactive),37.4 µM (inactive),32.8 µM (inactive),23 µM (inactive),,
COc1ccccc1NC(=O)CC(=O)n1nc(C)c(/N=N/c2ccccc2Cl)c1C,> 100 µM (inactive),> 100 µM (inactive),5.12 µM (inactive),58.3 µM (inactive),> 90.4 µM (inactive),> 100 µM (inactive),> 100 µM (inactive),56.1 µM (inactive),> 37.2 µM (inactive),> 100 µM (inactive),> 100 µM (inactive),> 100 µM (inactive),> 100 µM (inactive),> 100 µM (inactive),> 100 µM (inactive),> 100 µM (inactive),> 81.3 µM (inactive),> 95.5 µM (inactive),> 76 µM (inactive),83.4 µM (inactive)
CC(=O)/C=C1\CC(=O)Nc2ccccc2N1,> 100 µM (inactive),> 100 µM (inactive),> 100 µM (inactive),,> 100 µM (inactive),,> 100 µM (inactive),> 100 µM (inactive),> 100 µM (inactive),> 100 µM (inactive),> 100 µM (inactive),> 100 µM (inactive),> 100 µM (inactive),> 100 µM (inactive),,> 100 µM (inactive),2.79 µM (inactive),> 100 µM (inactive),> 100 µM (inactive),> 100 µM (inactive)
CCCCCCCCCCCCCCCCCCN(C)C(COC)COP(=O)([O-])OCC[N+](C)(C)C (stereo not drawn),14.9 µM (inactive),4.26 µM (inactive),4.5 µM (inactive),3.09 µM (inactive),17.5 µM (inactive),1.58 µM (inactive),1.74 µM (inactive),7.01 µM (inactive),8.45 µM (inactive),1.83 µM (inactive),1.66 µM (inactive),2.34 µM (inactive),11.8 µM (inactive),3.46 µM (inactive),2.69 µM (inactive),2.08 µM (inactive),2.18 µM (inactive),1.48 µM (inactive),3.24 µM (inactive),2.56 µM (inactive)
CC(/C=C/C=C\C=C\C=C(/C)C(=O)NC(C)CO)=C\C(C)C(O)/C(C)=C/C(C)CCc1ccccc1 (stereo not drawn),6.64 µM (inactive),3.18 µM (inactive),8.04 µM (inactive),12.4 µM (inactive),4.73 µM (inactive),13.7 µM (inactive),13.4 µM (inactive),14.1 µM (inactive),< 0.01 µM (active),4.14 µM (inactive),7.59 µM (inactive),10.9 µM (inactive),6.82 µM (inactive),8 µM (inactive),2.77 µM (inactive),11.1 µM (inactive),8.85 µM (inactive),5.02 µM (inactive),13.5 µM (inactive),0.0236 µM (active)
CC/C(C)=C1\CCC(CN(C)C)C1=O (stereo not drawn),22 µM (inactive),16.3 µM (inactive),24.8 µM (inactive),42.2 µM (inactive),21.9 µM (inactive),,15.8 µM (inactive),18.7 µM (inactive),21.2 µM (inactive),2.82 µM (inactive),25.2 µM (inactive),19.1 µM (inactive),27.6 µM (inactive),19.5 µM (inactive),,21.7 µM (inactive),15.9 µM (inactive),18.4 µM (inactive),25.4 µM (inactive),> 100 µM (inactive)
COc1cc2c(cc1OC)C1C=NC(C(=O)O)(C2)c2ccccc21 (stereo not drawn),> 100 µM (inactive),> 100 µM (inactive),> 100 µM (inactive),> 100 µM (inactive),> 100 µM (inactive),> 100 µM (inactive),> 100 µM (inactive),> 100 µM (inactive),> 100 µM (inactive),> 100 µM (inactive),> 10 µM (inactive),> 100 µM (inactive),> 100 µM (inactive),> 100 µM (inactive),> 100 µM (inactive),> 100 µM (inactive),52.5 µM (inactive),26.4 µM (inactive),> 100 µM (inactive),> 100 µM (inactive)
COC(=O)C(CCS(=O)(=O)CC(=O)C(=O)Nc1cccc(C(C)=O)c1)C(=O)OC,> 100 µM (inactive),> 100 µM (inactive),> 100 µM (inactive),> 100 µM (inactive),> 100 µM (inactive),> 54.5 µM (inactive),> 100 µM (inactive),> 100 µM (inactive),> 100 µM (inactive),> 47.2 µM (inactive),> 100 µM (inactive),> 100 µM (inactive),> 100 µM (inactive),> 100 µM (inactive),> 92.3 µM (inactive),> 100 µM (inactive),> 43.1 µM (inactive),> 100 µM (inactive),0.586 µM (active),> 100 µM (inactive)
N/N=C1\C(=O)N(C2CCCCC2)C(=O)C1C(=O)NC1CCCCC1 (stereo not drawn),> 100 µM (inactive),> 100 µM (inactive),43.1 µM (inactive),> 100 µM (inactive),> 100 µM (inactive),> 100 µM (inactive),> 100 µM (inactive),> 100 µM (inactive),> 100 µM (inactive),> 100 µM (inactive),> 100 µM (inactive),> 100 µM (inactive),> 100 µM (inactive),> 100 µM (inactive),> 100 µM (inactive),20.7 µM (inactive),> 100 µM (inactive),26.2 µM (inactive),> 100 µM (inactive),> 100 µM (inactive)
N#C/C(=C\c1cccc(Cl)c1Cl)c1ccccc1,> 48.2 µM (inactive),54 µM (inactive),50.2 µM (inactive),37 µM (inactive),> 69.5 µM (inactive),> 100 µM (inactive),37.6 µM (inactive),35.1 µM (inactive),40.8 µM (inactive),> 61.9 µM (inactive),> 79.3 µM (inactive),> 100 µM (inactive),53.3 µM (inactive),74.5 µM (inactive),52.8 µM (inactive),> 100 µM (inactive),39.3 µM (inactive),> 100 µM (inactive),58.1 µM (inactive),38.4 µM (inactive)
NC1=NN(c2ccccc2)C(=O)C1/C(=N\NC(=O)c1cc2ccccc2cc1O)C(=O)Nc1nc([N+](=O)[O-])cs1 (stereo not drawn),> 65 µM (inactive),34.8 µM (inactive),> 100 µM (inactive),54 µM (inactive),47.3 µM (inactive),23.7 µM (inactive),31.5 µM (inactive),23.9 µM (inactive),18.4 µM (inactive),9.59 µM (inactive),40.2 µM (inactive),44.9 µM (inactive),19.5 µM (inactive),35.7 µM (inactive),19.1 µM (inactive),40.9 µM (inactive),17.3 µM (inactive),8.81 µM (inactive),16.7 µM (inactive),28.9 µM (inactive)
CC1CC(C2=CC=CCS2)=Nc2ccccc2S1 (stereo not drawn),> 100 µM (inactive),> 100 µM (inactive),> 100 µM (inactive),> 100 µM (inactive),> 100 µM (inactive),> 100 µM (inactive),> 100 µM (inactive),> 100 µM (inactive),> 100 µM (inactive),97.5 µM (inactive),80.4 µM (inactive),> 100 µM (inactive),> 100 µM (inactive),> 100 µM (inactive),92.3 µM (inactive),> 100 µM (inactive),> 100 µM (inactive),> 100 µM (inactive),> 100 µM (inactive),> 100 µM (inactive)
CC(=O)OC1CC2C(C)(C)C(=O)C=C[C@]2(C)C2CCC3(C)C(c4ccoc4)[C@@H](O)[C@H]4O[C@]43[C@]12C (stereo partly drawn),24.2 µM (inactive),18.5 µM (inactive),25.6 µM (inactive),22.7 µM (inactive),30.2 µM (inactive),19.8 µM (inactive),17.5 µM (inactive),17.9 µM (inactive),18.1 µM (inactive),18.4 µM (inactive),16.1 µM (inactive),25.9 µM (inactive),18.3 µM (inactive),19.9 µM (inactive),14.6 µM (inactive),18.5 µM (inactive),21.6 µM (inactive),24.9 µM (inactive),24.5 µM (inactive),23.3 µM (inactive)
